Measurements reported in patent US20260232692A1, “Methods Of Treating Cancer Using BCL-2 Inhibitors With Iron And Heme Supplementation Therapies” (Emory University, priority 2023, published 2026).
“Also recorded” adds a separate entry of the source.

Tests used:
[1] = tested on: VS t(11; 14) MM cell lines; assay: Growth/viability of VS t(11;14) MM cell lines under iron chelation or supplementation (CellTiter-Glo 3D); format: cell-based; details: iron chelation with DFO or supplementation with FAC (500 μM FAC up to 96 h, FIG. 7A)
Procedure: Cells were treated with 500 μM FAC up to 96 h and assessed for viability using CellTiter-Glo® 3D Cell Viability Assay.
Iron is a cofactor for the maintenance of ETC activity. The impact of modulating iron levels either by chelation with deferoxamine (DFO) or supplementation with ferric ammonium citrate (FAC) was assessed in a panel of VS t(11; 14) and VR non t(11; 14) MM cell lines.

[2] = tested on: reactive oxygen species (ROS) in VS t(11; 14) MM; details: FAC treated VS t(11;14) MM
Excerpt: (§1) Free or excess intracellular iron is a potent inducer of reactive oxygen species (ROS) and oxidative stress.

[3] = tested on: iron homeostasis-related protein in VS t(11; 14) cell lines
Procedure: FIG. 8B show data on the expression of iron homeostasis-related protein in whole cell lysates supplemented with 500 μM FAC for 72 h in indicated cell lines by immunoblotting using actin as a loading control. Indicated cell lines were treated with a ferroptotic inhibitor, ferrostatin (Fn-1).
as §1

t(11; 14) patient sample = details: FAC 250 μM and 500 μM, venetoclax 0.001, 0.005 and 0.01 μM, FIG. 7C
VS t(11; 14) cell lines = assay: Rescue of FAC mediated cell death in VS t(11;14) cell lines; format: cell-based; details: in the presence and absence of venetoclax
Procedure: Intracellular iron overload, ROS mediated lipid peroxidation, and loss of GSH/GPX4 mediated antioxidant defenses are all features of ferroptosis. Experiments were performed to determine whether FAC supplementation in VS t(11; 14) MM promotes cell death via ferroptosis. VS t(11; 14) cell lines were treated with a ferrostatin (Fn-1), a synthetic antioxidant that acts via a reductive mechanism to prevent damage to membrane lipids and thereby, inhibits cell death. Inhibiting ferroptosis was able to fully rescue the cell death induced by FAC both in the presence and absence of venetoclax (FIG. 8B). Boc-D-FMK is a caspase inhibitor that inhibits apoptosis.

[4] = tested on: venetoclax sensitive (VS) multiple myeloma (MM) cell lines; assay: Hemin/5-ALA supplementation and Ven sensitivity in VS MM cell lines, Annexin V/DAPI flow cytometry; format: cell-based; details: 50 μM Hemin/5-ALA pre-treatment 24 hours, then Ven 24 hrs
Procedure: Cell death/viability was assessed by Annexin V/DAPI flow cytometric staining.
To test the necessity for reduced heme synthesis for Ven sensitivity in t(11; 14) MM, Ven treated cells were supplemented with either the heme synthesis precursor 5-ALA or hemin (oxidized heme and active ingredient of clinically approved Panhematin™).

MEK-ERK-mTORC1 signaling = MEK-ERK-mTORC1 signaling in whole cell lysates of VS MM treated with hemin; format: cell-based; details: 50 μM hemin and/or 0.05 μM Ven for 18 h
Procedure: Whole cell lysates of indicated lines were treated with 50 μM hemin and/or 0.05 μM Ven for 18 h. Indicated VS cells were treated with 50 µM hemin and 0.05 μM Ven and RAF, MEK, or ERK-inhibitors. Cell death/viability was evaluated by Annexin V/DAPI flow cytometric staining.

[5] = tested on: venetoclax sensitive acute myeloid leukemia (AML) cell lines; assay: Hemin supplementation and venetoclax sensitivity in AML cell lines; format: cell-based

ferric ammonium citrate [FAC]
effect on growth/proliferation of VS cell lines [1]: specifically inhibit the proliferation; also recorded: growth suppressive effect
cytosolic ROS levels [2]: not in cytosolic ROS levels
mitochondrial ROS ([2]; 48 h): significant elevation
cystine-glutamate antiporter SLC7A11 expression ([3]; FAC treatment): not altered
iron importer TFR1 expression ([3]; FAC treatment): reduction
iron storage protein ferritin expression ([3]; FAC treatment): increase
glutathione peroxidase 4 (GPX4) protein expression ([3]; all VS t(11;14) cell lines, 500 μM FAC for 72 h): consistent reduction
sensitivity to venetoclax with iron supplementation (t(11; 14) patient sample): A similar response

CCOC(=O)c1ccc(NC2CCCCC2)c(N)c1 [ferrostatin]
rescue of cell death induced by FAC (VS t(11; 14) cell lines): sufficient to mitigate; also recorded: fully rescue

C=CC1=C(C)c2cc3[n-]c(cc4[n-]c(cc5nc(cc1n2)C(C)=C5C=C)c(C)c4CCC(=O)O)c(CCC(=O)O)c3C.[Fe+2] [hemin, [7,12-diethenyl-3,8,13,17-tetramethyl-21H,23H-porphine-2,18-dipropanoato(2-)-N21,N22,N23,N24] iron]
reversal (rescue) of Ven sensitivity [4]: significantly reversed; also recorded: reverses
MEK-ERK-mTORC1 signaling (MEK-ERK-mTORC1 signaling): restores
reversal of venetoclax sensitivity [5]: reverses

COC(=O)CC(NC(=O)OC(C)(C)C)C(=O)CF [Boc-D-FMK]
rescue of cell death induced by FAC (VS t(11; 14) cell lines): not able to rescue
